Source: patent publication US20240417405A1, “Substituted Spiro Derivatives” (Janssen Pharmaceutica NV, priority 2021, published 2024)
Read-outs that look alike come from different tables or passages of the source.

What was measured:
[1] = biological target: T1, menin/MLL (terbium chelate-labeled menin, FITC-MBM1 peptide) (Homo sapiens, UniProt O00255, T541A); experiment: Menin/MLL homogenous time-resolved fluorescence (HTRF) assay; assay type: binding; conditions: 30 min incubation
T1 construct: Menin (a.a 1-610-6xhis tag)
T1 sequence (O00255 with tags, fused parts or gaps T541A): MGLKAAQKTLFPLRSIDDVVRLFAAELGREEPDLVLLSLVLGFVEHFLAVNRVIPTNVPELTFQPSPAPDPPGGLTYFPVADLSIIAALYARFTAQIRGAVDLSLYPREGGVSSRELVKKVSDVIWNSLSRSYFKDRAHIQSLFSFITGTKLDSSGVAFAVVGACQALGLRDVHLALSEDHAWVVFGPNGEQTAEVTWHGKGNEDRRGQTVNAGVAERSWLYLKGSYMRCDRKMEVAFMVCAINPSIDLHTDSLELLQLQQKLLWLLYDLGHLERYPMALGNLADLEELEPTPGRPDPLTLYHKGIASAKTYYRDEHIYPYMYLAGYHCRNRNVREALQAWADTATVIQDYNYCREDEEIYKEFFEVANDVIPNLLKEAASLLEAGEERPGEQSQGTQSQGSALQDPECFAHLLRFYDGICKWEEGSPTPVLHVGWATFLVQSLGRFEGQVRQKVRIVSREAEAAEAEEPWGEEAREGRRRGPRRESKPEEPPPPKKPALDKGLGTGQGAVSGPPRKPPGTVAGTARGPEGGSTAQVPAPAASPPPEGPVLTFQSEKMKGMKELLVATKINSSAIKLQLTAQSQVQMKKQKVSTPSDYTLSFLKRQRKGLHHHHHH
Procedure, shortened: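 Read-out: TR-FRET ratio (FITC 520 nm / terbium 490 nm, ex. 337 nm) after 15 min with 75 nM FITC-MBM1 peptide. Test compound first sat 30 min with 200 pM Tb-menin 1-610-His, 0.5% DMSO, pH 7.5 Tris buffer. IC50 by Hill fit; values under 0.1 nM reported as 0.1 nM.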

KO-52 cells = experiment: Proliferation assay, spheroid-like growth, KO-52 (MLL wildtype control cell line); assay type: cell-based, human; conditions: KO-52 control cells, 8 days, confluence as measure of spheroid size, read-out: spheroid assay_OneTime KO-52 IC50
Procedure, shortened: (§1)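 MOLM14 (MLL-AF9) or KO-52 (MLL wildtype) cells were grown in ultra-low attachment round-bottom wells with compound (0.3% DMSO) for 8 days at 37 °C. Spheroid confluence was imaged live on day 8, normalized to DMSO and a high-dose reference/staurosporin control, and absolute IC50 fitted with variable slope.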

MOLM14 cells = experiment: Proliferation assay, spheroid-like growth, MOLM14 (MLL-AF9 rearranged); assay type: cell-based, human; conditions: 8 days, confluence as measure of spheroid size, read-out: spheroid assay_OneTime MOLM14 IC50
Procedure, shortened: as §1

For `CC(C)C([C@H]1C[C@@H](N)C1)N1CC2(CCN(c3ncnnc3Oc3ccc(F)cc3-c3cncnc3C3CC3)C2)C1` (single isomer, unassigned) [Compound 1b], the IC50 [1] was 0.4 nM, the IC50 (KO-52 cells) was > 15000 nM and the IC50 (MOLM14 cells) was 200 nM.

In the case of `CC(C)[C@@H]([C@H]1C[C@H](N2CC[C@](C)(O)C2)C1)N1CC2(CCN(c3ncnnc3Oc3ccc(F)cc3-c3cnncc3C3CC3)C2)C1` (single isomer, unassigned) [Compound 113], the IC50 [1] is reported as 0.2 nM, the IC50 (KO-52 cells; Homo sapiens, 192 h) is reported as > 15000 nM and the IC50 (MOLM14 cells; Homo sapiens, MOLM-14, 192 h) is reported as 200 nM.

With `CC(C)[C@@H]([C@H]1C[C@H](N2CCC2)C1)N1CC2(CCN(c3ncnnc3Oc3ccc(F)cc3-c3cncnc3C3CC3)C2)C1` (single isomer, unassigned) [Compound 346] the IC50 [1] was 2.3 nM, the IC50 (KO-52 cells; Homo sapiens, 192 h) was > 15000 nM and the IC50 (MOLM14 cells; Homo sapiens, MOLM-14, 192 h) was 700 nM.

With `CC(C)[C@H]([C@H]1C[C@]2(COC(=O)N2)C1)N1CC2(CCN(c3ncnnc3Oc3ccc(F)cc3-c3ncccc3C3CC3)C2)C1` (single isomer, unassigned) [Compound 321] the IC50 [1] was 91.1 nM, the IC50 (KO-52 cells; Homo sapiens, 192 h) was > 15000 nM and the IC50 (MOLM14 cells; Homo sapiens, MOLM-14, 192 h) was > 940 nM.

`CC(C)[C@H]([C@H]1C[C@@H](N2CCC(F)C(O)C2)C1)N1CC2(CCN(c3ncnnc3Oc3ccc(F)cc3-c3cncnc3C3CC3)C2)C1` (single isomer, unassigned) [Compound 30] showed an IC50 [1] of 0.3 nM, an IC50 (KO-52 cells; Homo sapiens, 192 h) of 2580 nM and an IC50 (MOLM14 cells; Homo sapiens, MOLM-14, 192 h) of 29 nM.

For `CC(C)[C@@H]([C@H]1C[C@@H](N2CC[C@@H](C(=O)N(C)C)C2)C1)N1CC2(CCN(c3ncnnc3Oc3ccc(F)cc3-c3cnncc3C3CC3)C2)C1` (single isomer, unassigned) [Compound 110], the IC50 [1] was 0.1 nM, the IC50 (KO-52 cells; Homo sapiens, 192 h) was 6840 nM and the IC50 (MOLM14 cells; Homo sapiens, MOLM-14, 192 h) was 12 nM.

In the case of `CC(C)[C@@H]([C@H]1C[C@@H](N2CCC(O)CC2)C1)N1CC2(CCN(c3ncnnc3Oc3ccc(F)cc3-c3cncnc3C3CC3)C2)C1` (single isomer, unassigned) [Compound 88], the IC50 [1] is reported as 2.3 nM, the IC50 (KO-52 cells; Homo sapiens, 192 h) is reported as > 15000 nM and the IC50 (MOLM14 cells; Homo sapiens, MOLM-14, 192 h) is reported as 410 nM.

With `CC(C)[C@H]([C@H]1C[C@H](N2CCC(C)(C(=O)N(C)C)C2)C1)N1CC2(CCN(c3ncnnc3Oc3ccc(F)cc3-c3cncnc3C3CC3)C2)C1` (stereo partly drawn) [Compound 162] the IC50 [1] was 0.1 nM, the IC50 (KO-52 cells; Homo sapiens, 192 h) was 6400 nM and the IC50 (MOLM14 cells; Homo sapiens, MOLM-14, 192 h) was 110 nM.

For `CCOC(=O)c1cnc(N[C@H]2C[C@@H](C(C(C)C)N3CC4(CCN(c5ncnnc5Oc5ccc(F)cc5-c5cncnc5C5CC5)C4)C3)C2)o1` (single isomer, unassigned) [Compound 478], the IC50 [1] was 0.29 nM, the IC50 (KO-52 cells; Homo sapiens, 192 h) was 1250 nM and the IC50 (MOLM14 cells; Homo sapiens, MOLM-14, 192 h) was 12 nM.

With `CC1CN([C@H]2C[C@@H]([C@H](C(C)C)N3CC4(CCN(c5ncnnc5Oc5ccc(F)cc5-c5cncnc5C5CC5)C4)C3)C2)CCC1O` (single isomer, unassigned) [Compound 87] the IC50 [1] was 1.9 nM, the IC50 (KO-52 cells; Homo sapiens, 192 h) was > 15000 nM and the IC50 (MOLM14 cells; Homo sapiens, MOLM-14, 192 h) was 820 nM.

Work on `CC(=O)N1CCN([C@H]2C[C@@H](C(C(C)C)N3CC4(CCN(c5ncnnc5Oc5ccc(F)cc5-c5cncc(C#N)c5C5CC5)C4)C3)C2)CC1` (stereo partly drawn) [Compound 144] yielded an IC50 [1] of 0.8 nM, an IC50 (KO-52 cells; Homo sapiens, 192 h) of 12300 nM and an IC50 (MOLM14 cells; Homo sapiens, MOLM-14, 192 h) of 200 nM.

For `CC(C)[C@@H]([C@H]1C[C@@H](N2CC[C@@](C)(O)C2)C1)N1CC2(CCN(c3ncnnc3Oc3ccc(F)cc3-c3cnncc3C3CC3)C2)C1` (single isomer, unassigned) [Compound 114], the IC50 [1] was 0.1 nM, the IC50 (KO-52 cells; Homo sapiens, 192 h) was 14200 nM and the IC50 (MOLM14 cells; Homo sapiens, MOLM-14, 192 h) was 8 nM.

`CC(C)[C@H]([C@H]1C[C@@H](N2CC3(CCN(C)C3=O)C2)C1)N1CC2(CCN(c3ncnnc3Oc3ccc(F)cc3-c3cncnc3C3CC3)C2)C1` (single isomer, unassigned) [Compound 315] was tested, and the IC50 [1] was 0.1 nM, the IC50 (KO-52 cells; Homo sapiens, 192 h) was 1960 nM and the IC50 (MOLM14 cells; Homo sapiens, MOLM-14, 192 h) was 18 nM.

For `COC1CN([C@H]2C[C@@H]([C@@H](C(C)C)N3CC4(CCN(c5ncnnc5Oc5ccc(F)cc5-c5cncnc5C5CC5)C4)C3)C2)CC1OC` (single isomer, unassigned) [Compound 236], the IC50 [1] was 0.2 nM, the IC50 (KO-52 cells; Homo sapiens, 192 h) was 2250 nM and the IC50 (MOLM14 cells; Homo sapiens, MOLM-14, 192 h) was 4 nM.
